# Assay results reported in patent US20110040086A1, “Novel Beta-Lactam Antibiotics, Methods for Their Production, and Their Use” (DRITTE PATENTPORTFOLIO BETEILIGUNGSGESELLSCHAFT MB, priority 2007, published 2011).
# Assays:
# [1] = tested on: B. subtilis AWD 166; experiment: agar diffusion test (antimicrobial effect); type: cell-based, Bacillus subtilis
# How it was run: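 Inhibition zone diameters (mm) read after 20 h incubation at 37 °C. Discs carried 10 μg, 50 μg or 100 μg of test substance, dissolved in methanol or distilled water, on agar inoculated with B. subtilis AWD 166 for dense but separate colonies.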
# [2] = tested on: S. aureus North Germany strain; experiment: agar diffusion test (Test System II, multi-resistant germs); type: cell-based, Staphylococcus aureus; design: key: r = resistant (no detectable zone of inhibition)
# How it was run: (§1)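 Read-out is the diameter of the growth-free zone around each disc after plates incubate 18-20 hours at 37 °C. Discs hold 10, 50 or 100 μg of substance applied from methanol or aqueous solution, on agar seeded with bacteria adjusted to McFarland 0.5.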
# [3] = tested on: S. aureus 526; experiment: as above; type: cell-based, Staphylococcus aureus; design: key: r = resistant (no detectable zone of inhibition)
# How it was run: as §1
# [4] = tested on: S. aureus 33490; experiment: as above; type: cell-based, Staphylococcus aureus; design: key: r = resistant (no detectable zone of inhibition)
# How it was run: as §1
# [5] = tested on: S. aureus 520; experiment: as above; type: cell-based, Staphylococcus aureus; design: key: r = resistant (no detectable zone of inhibition)
# How it was run: as §1
# [6] = tested on: S. aureus 34289; experiment: as above; type: cell-based, Staphylococcus aureus; design: key: r = resistant (no detectable zone of inhibition)
# How it was run: as §1
# [7] = tested on: S. aureus 36881; experiment: as above; type: cell-based, Staphylococcus aureus; design: key: r = resistant (no detectable zone of inhibition)
# How it was run: as §1
# [8] = tested on: S. aureus 39105; experiment: as above; type: cell-based, Staphylococcus aureus; design: key: r = resistant (no detectable zone of inhibition)
# How it was run: as §1
# [9] = tested on: S. epidermidis 847; experiment: as above; type: cell-based, Staphylococcus epidermidis
# How it was run: as §1
# [10] = tested on: S. epidermidis 563; experiment: as above; type: cell-based, Staphylococcus epidermidis
# How it was run: as §1
# [11] = tested on: S. epidermidis 1068; experiment: as above; type: cell-based, Staphylococcus epidermidis
# How it was run: as §1
# [12] = tested on: S. epidermidis 1071; experiment: as above; type: cell-based, Staphylococcus epidermidis
# How it was run: as §1
# [13] = tested on: Escherichia coli SBUG 1135; experiment: agar diffusion test (Test System 1, antimicrobial effect); type: cell-based
# How it was run: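 Disc diffusion: compound at 10 μg, 50 μg, 100 μg on sensi-discs, three per plate of nutrient agar seeded with ~10^6 E. coli SBUG 1135 (overnight culture, 17 h, 37° C, diluted 1:100). After 20 h incubation at 37° C, zone diameter recorded in mm.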
# [14] = tested on: Bacillus megaterium SBUG 1152; experiment: as above; type: cell-based
# How it was run: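 Paper discs loaded with 10 μg, 50 μg or 100 μg of test substance (methanol or water solution) placed on nutrient agar seeded with 10^6 cells of a 17-h B. megaterium culture. After 20 h at 37° C., zone of inhibition measured as diameter in mm.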
# [15] = tested on: E. faecalis 945; experiment: agar diffusion test (Test System II, multi-resistant germs); type: cell-based, Enterococcus faecalis; design: key: r = resistant (no detectable zone of inhibition)
# How it was run: as §1
# [16] = logP value by HPLC according to Donovan et al.; conditions: HPLC with methanol/0.1% phosphoric acid gradient, pH 2
# Protocol: • Operating temperature 18-24° C. • Flow 1.5 mL/min • Linear gradient (methanol/0.1% phosphoric acid pH 2) from 10% to 100% methanol in 9.4 min, equilibrium time between 2 runs 6 min
# ca. 0.5 mg of analyte is added to 0.5 ml of a standard solution (440 mg methyl phenyl sulfonate and 380 μl toluene in 150 mL methanol). 2 μl of this sample solution is injected.
# Because the distribution coefficients of the two standards running in each test are known, the distribution coefficient of the analytes can be determined from the relationships of the analyte/standard retention times.
# [17] = tested on: S. epidermidis 125; experiment: agar diffusion test (Test System II, multi-resistant germs); type: cell-based, Staphylococcus epidermidis
# How it was run: as §1
# [18] = tested on: S. aureus 38418; experiment: as above; type: cell-based, Staphylococcus aureus
# How it was run: as §1
# [19] = tested on: S. aureus ATCC 6538; experiment: as above; type: cell-based, Staphylococcus aureus
# How it was run: as §1
# [20] = tested on: Enterococcus faecalis 769; experiment: as above; type: cell-based; design: key: r = resistant (no detectable zone of inhibition)
# How it was run: as §1
# [21] = tested on: Staphylococcus aureus 315; experiment: as above; type: cell-based; design: key: r = resistant (no detectable zone of inhibition)
# How it was run: as §1
smiles,measurement,setting,value
"CC1=C(C(=O)O)N2C(=O)[C@@H](NC(=O)[C@H](N)c3ccc(O)cc3)[C@H]2SC1 [2a, Cefadroxil, reference compound]",Diameter of zone of inhibition,[1]; Quantity n 0.019,36 mm
same,Diameter of zone of inhibition,[1]; Quantity n 0.1,38 mm
same,Diameter of zone of inhibition,[1]; Quantity n 0.19,40 mm
same,Diameter of zone of inhibition,[2]; Quantity n 0.019,r
same,Diameter of zone of inhibition,[2]; Quantity n 0.1,r
same,Diameter of zone of inhibition,[2]; Quantity n 0.19,10 mm
same,Diameter of zone of inhibition,[3]; Quantity n 0.019,r
same,Diameter of zone of inhibition,[3]; Quantity n 0.1,r
same,Diameter of zone of inhibition,[3]; Quantity n 0.19,r
same,Diameter of zone of inhibition,[4]; Quantity n [μmol] 0.019,16 mm
same,Diameter of zone of inhibition,[4]; Quantity n [μmol] 0.1,24 mm
same,Diameter of zone of inhibition,[4]; Quantity n [μmol] 0.19,28 mm
same,Diameter of zone of inhibition,[5]; Quantity n [mol] 0.019,r
same,Diameter of zone of inhibition,[5]; Quantity n [mol] 0.1,r
same,Diameter of zone of inhibition,[5]; Quantity n [mol] 0.19,8 mm
same,Diameter of zone of inhibition,[6]; Quantity n [mol] 0.019,r
same,Diameter of zone of inhibition,[6]; Quantity n [mol] 0.1,r
same,Diameter of zone of inhibition,[6]; Quantity n [mol] 0.19,r
same,Diameter of zone of inhibition,[7]; Quantity n 0.019,r
same,Diameter of zone of inhibition,[7]; Quantity n 0.1,14 mm
same,Diameter of zone of inhibition,[7]; Quantity n 0.19,18 mm
same,Diameter of zone of inhibition,[8]; Quantity n 0.019,16 mm
same,Diameter of zone of inhibition,[8]; Quantity n 0.1,24 mm
same,Diameter of zone of inhibition,[8]; Quantity n 0.19,26 mm
same,Diameter of zone of inhibition,[9]; Quantity n [mol] 0.019,12 mm
same,Diameter of zone of inhibition,[9]; Quantity n [mol] 0.1,26 mm
same,Diameter of zone of inhibition,[9]; Quantity n [mol] 0.19,30 mm
same,Diameter of zone of inhibition,[10]; Quantity n 0.019,24 mm
same,Diameter of zone of inhibition,[10]; Quantity n 0.1,28 mm
same,Diameter of zone of inhibition,[10]; Quantity n 0.19,32 mm
same,Diameter of zone of inhibition,[11]; Quantity n 0.019,20 mm
same,Diameter of zone of inhibition,[11]; Quantity n 0.1,24 mm
same,Diameter of zone of inhibition,[11]; Quantity n 0.19,26 mm
same,Diameter of zone of inhibition,[12]; Quantity n 0.019,22 mm
same,Diameter of zone of inhibition,[12]; Quantity n 0.1,28 mm
same,Diameter of zone of inhibition,[12]; Quantity n 0.19,30 mm
same,Diameter of zone of inhibition,[13]; Quantity n 0.019,18 mm
same,Diameter of zone of inhibition,[13]; Quantity n 0.1,22 mm
same,Diameter of zone of inhibition,[13]; Quantity n 0.19,26 mm
same,Diameter of zone of inhibition,[14]; Quantity n 0.019,36^1 mm
same,Diameter of zone of inhibition,[14]; Quantity n 0.1,38 mm
same,Diameter of zone of inhibition,[14]; Quantity n 0.19,40 mm
same,Diameter of zone of inhibition,[15]; Quantity n 0.019,r
same,Diameter of zone of inhibition,[15]; Quantity n 0.1,r
same,Diameter of zone of inhibition,[15]; Quantity n 0.19,r
same,chromatographic logP,[16],-3.5
same,Diameter of zone of inhibition,[17]; Quantity n 0.019,26 mm
same,Diameter of zone of inhibition,[17]; Quantity n 0.1,36 mm
same,Diameter of zone of inhibition,[17]; Quantity n 0.19,40 mm
same,Diameter of zone of inhibition,[18]; Quantity n [mol] 0.019,30 mm
same,Diameter of zone of inhibition,[18]; Quantity n [mol] 0.1,34 mm
same,Diameter of zone of inhibition,[18]; Quantity n [mol] 0.19,38 mm
same,Diameter of zone of inhibition,[19]; Quantity n 0.019,32 mm
same,Diameter of zone of inhibition,[19]; Quantity n 0.1,38 mm
same,Diameter of zone of inhibition,[19]; Quantity n 0.19,40 mm
same,Diameter of zone of inhibition,[20]; Quantity n 0.019,r
same,Diameter of zone of inhibition,[20]; Quantity n 0.1,10 mm
same,Diameter of zone of inhibition,[20]; Quantity n 0.19,14 mm
same,Diameter of zone of inhibition,[21]; Quantity n 0.019,r
same,Diameter of zone of inhibition,[21]; Quantity n 0.1,r
same,Diameter of zone of inhibition,[21]; Quantity n 0.19,8 mm
"N[C@@H](C(=O)N[C@@H]1C(=O)N2C(C(=O)O)=C(Cl)CS[C@H]12)c1ccccc1 [2c, Cefaclor, reference compound]",Diameter of zone of inhibition,[1]; Quantity n 0.019,36 mm
same,Diameter of zone of inhibition,[1]; Quantity n 0.1,38 mm
same,Diameter of zone of inhibition,[1]; Quantity n 0.19,40 mm
same,Diameter of zone of inhibition,[2]; Quantity n 0.019,r
same,Diameter of zone of inhibition,[2]; Quantity n 0.1,10 mm
same,Diameter of zone of inhibition,[2]; Quantity n 0.19,14 mm
same,Diameter of zone of inhibition,[3]; Quantity n 0.019,r
same,Diameter of zone of inhibition,[3]; Quantity n 0.1,8 mm
same,Diameter of zone of inhibition,[3]; Quantity n 0.19,12 mm
same,Diameter of zone of inhibition,[4]; Quantity n [μmol] 0.019,24 mm
same,Diameter of zone of inhibition,[4]; Quantity n [μmol] 0.1,30 mm
same,Diameter of zone of inhibition,[4]; Quantity n [μmol] 0.19,32 mm
same,Diameter of zone of inhibition,[5]; Quantity n [mol] 0.019,r
same,Diameter of zone of inhibition,[5]; Quantity n [mol] 0.1,10 mm
same,Diameter of zone of inhibition,[5]; Quantity n [mol] 0.19,14 mm
same,Diameter of zone of inhibition,[6]; Quantity n [mol] 0.019,r
same,Diameter of zone of inhibition,[6]; Quantity n [mol] 0.1,r
same,Diameter of zone of inhibition,[6]; Quantity n [mol] 0.19,10 mm
same,Diameter of zone of inhibition,[7]; Quantity n 0.019,r
same,Diameter of zone of inhibition,[7]; Quantity n 0.1,12 mm
same,Diameter of zone of inhibition,[7]; Quantity n 0.19,18 mm
same,Diameter of zone of inhibition,[8]; Quantity n 0.019,22 mm
same,Diameter of zone of inhibition,[8]; Quantity n 0.1,24 mm
same,Diameter of zone of inhibition,[8]; Quantity n 0.19,28 mm
same,Diameter of zone of inhibition,[9]; Quantity n [mol] 0.019,14 mm
same,Diameter of zone of inhibition,[9]; Quantity n [mol] 0.1,24 mm
same,Diameter of zone of inhibition,[9]; Quantity n [mol] 0.19,28 mm
same,Diameter of zone of inhibition,[10]; Quantity n 0.019,30 mm
same,Diameter of zone of inhibition,[10]; Quantity n 0.1,34 mm
same,Diameter of zone of inhibition,[10]; Quantity n 0.19,36 mm
same,Diameter of zone of inhibition,[11]; Quantity n 0.019,22 mm
same,Diameter of zone of inhibition,[11]; Quantity n 0.1,24 mm
same,Diameter of zone of inhibition,[11]; Quantity n 0.19,30 mm
same,Diameter of zone of inhibition,[12]; Quantity n 0.019,28 mm
same,Diameter of zone of inhibition,[12]; Quantity n 0.1,30 mm
same,Diameter of zone of inhibition,[12]; Quantity n 0.19,32 mm
same,Diameter of zone of inhibition,[13]; Quantity n 0.019,24 mm
same,Diameter of zone of inhibition,[13]; Quantity n 0.1,30 mm
same,Diameter of zone of inhibition,[13]; Quantity n 0.19,32 mm
same,Diameter of zone of inhibition,[14]; Quantity n 0.019,36^1 mm
same,Diameter of zone of inhibition,[14]; Quantity n 0.1,38 mm
same,Diameter of zone of inhibition,[14]; Quantity n 0.19,40 mm
same,Diameter of zone of inhibition,[15]; Quantity n 0.019,r
same,Diameter of zone of inhibition,[15]; Quantity n 0.1,8 mm
same,Diameter of zone of inhibition,[15]; Quantity n 0.19,12 mm
same,chromatographic logP,[16],-3.28
same,Diameter of zone of inhibition,[17]; Quantity n 0.019,26 mm
same,Diameter of zone of inhibition,[17]; Quantity n 0.1,34 mm
same,Diameter of zone of inhibition,[17]; Quantity n 0.19,36 mm
same,Diameter of zone of inhibition,[18]; Quantity n [mol] 0.019,26 mm
same,Diameter of zone of inhibition,[18]; Quantity n [mol] 0.1,34 mm
same,Diameter of zone of inhibition,[18]; Quantity n [mol] 0.19,38 mm
same,Diameter of zone of inhibition,[19]; Quantity n 0.019,30 mm
same,Diameter of zone of inhibition,[19]; Quantity n 0.1,38 mm
same,Diameter of zone of inhibition,[19]; Quantity n 0.19,40 mm
same,Diameter of zone of inhibition,[20]; Quantity n 0.019,r^2
same,Diameter of zone of inhibition,[20]; Quantity n 0.1,8 mm
same,Diameter of zone of inhibition,[20]; Quantity n 0.19,14 mm
same,Diameter of zone of inhibition,[21]; Quantity n 0.019,r
same,Diameter of zone of inhibition,[21]; Quantity n 0.1,10 mm
same,Diameter of zone of inhibition,[21]; Quantity n 0.19,12 mm
